Patent US10336775B2 (Asceneuron SA, priority 2014, dated 2019)
Read-outs that look alike come from different tables or passages of the source.

Target: His-Tagged hOGA (human O-GlcNAcase) (Homo sapiens (Human), UniProt O60502)
Experiment: Human O-GlcNAcase enzyme inhibition assay (Example B01)
Type: biochemical
Details: for IC50: OGA enzyme inhibition assay, activity range classes defined in μM; for OGA inhibitor activity (in words): measured according to Example B01

His-Tagged hOGA (human O-GlcNAcase), sequence (O60502 whole entry): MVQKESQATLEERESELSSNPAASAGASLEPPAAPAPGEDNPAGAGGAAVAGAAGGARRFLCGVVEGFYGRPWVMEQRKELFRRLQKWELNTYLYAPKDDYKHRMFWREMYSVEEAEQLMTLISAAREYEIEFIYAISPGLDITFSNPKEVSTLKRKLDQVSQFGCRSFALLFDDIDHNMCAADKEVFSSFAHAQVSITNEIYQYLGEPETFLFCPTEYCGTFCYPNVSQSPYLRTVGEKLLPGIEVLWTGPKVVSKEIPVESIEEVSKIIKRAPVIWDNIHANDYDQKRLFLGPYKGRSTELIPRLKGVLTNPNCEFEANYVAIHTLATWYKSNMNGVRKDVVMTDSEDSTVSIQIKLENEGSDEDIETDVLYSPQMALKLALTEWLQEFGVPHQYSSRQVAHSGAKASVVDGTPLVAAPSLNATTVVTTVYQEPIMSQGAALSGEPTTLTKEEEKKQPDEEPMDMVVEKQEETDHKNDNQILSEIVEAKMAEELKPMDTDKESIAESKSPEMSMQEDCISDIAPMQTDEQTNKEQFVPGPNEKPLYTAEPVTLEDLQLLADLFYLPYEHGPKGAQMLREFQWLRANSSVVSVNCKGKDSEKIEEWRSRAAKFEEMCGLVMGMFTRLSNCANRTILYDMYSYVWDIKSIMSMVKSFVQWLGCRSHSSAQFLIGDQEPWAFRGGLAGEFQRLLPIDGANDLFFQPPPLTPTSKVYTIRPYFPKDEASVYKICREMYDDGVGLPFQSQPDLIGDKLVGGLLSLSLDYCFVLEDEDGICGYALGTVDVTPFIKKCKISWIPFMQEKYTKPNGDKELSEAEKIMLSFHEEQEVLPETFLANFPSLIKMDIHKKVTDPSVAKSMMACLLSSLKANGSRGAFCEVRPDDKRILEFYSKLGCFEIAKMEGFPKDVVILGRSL

| IC50 (read-out: OGA IC50) | OGA inhibitor activity (in words) | Compound | IC50 (OGA IC50 (M)) |
| --- | --- | --- | --- |
| 0.05 to 0.2 µM | – | CC(c1ccc2c(c1)OCO2)N1CCN(c2ccc(N)cn2)CC1 (racemic) [Example 58, 6-(4-(1-(Benzo[d][1,3]dioxol-5-yl)ethyl)piperazin-1-yl)pyridin-3-amine] | – |
| 0.05 to 0.2 µM | – | CC(c1ccc2c(c1)OCO2)N1CCN(c2ncc(C(=O)N3CCOCC3)s2)CC1 (racemic) [Example 67, (2-(4-(1-(Benzo[d][1,3]dioxol-5-yl)ethyl)piperazin-1-yl)thiazol-5-yl)(morpholino)methanone] | – |
| 0.2 to 1 µM | – | CC(c1ccc2c(c1)OCO2)N1CCN(c2ncc(N)cn2)CC1 (racemic) [Example 70, 2-(4-(1-(Benzo[d][1,3]dioxol-5-yl)ethyl)piperazin-1-yl)pyrimidin-5-amine] | – |
| 0.05 to 0.2 µM | – | CC(c1ccc2c(c1)OCCO2)N1CCN(c2ncc(C(=O)N3CCC(O)CC3)s2)CC1 (racemic) [Example 73, (2-(4-(1-(2,3-Dihydrobenzo[b][1,4]dioxin-6-yl)ethyl)piperazin-1-yl)thiazol-5-yl)(4-hydroxypiperidin-1-yl)methanone] | – |
| 1 to 10 µM | – | CC(=O)Nc1nnc(N2CCN(C(C)c3ccc(F)c(F)c3)CC2)s1 (racemic) [Example 76, N-(5-(4-(1-(3,4-difluorophenyl)ethyl)piperazin-1-yl)-1,3,4-thiadiazol-2-yl)acetamide] | – |
| 0.05 to 0.2 µM | – | CC(c1ccc2c(c1)OCO2)N1CCN(c2ncc(CN3CCOCC3)s2)CC1 (racemic) [Example 79, 4-((2-(4-(1-(Benzo[d][1,3]dioxol-5-yl)ethyl)piperazin-1-yl)thiazol-5-yl)methyl)morpholine] | – |
| < 0.05 µM | – | CC(=O)N(C)Cc1cnc(N2CCN(C(C)c3ccc4c(c3)OCO4)CC2)s1 (racemic) [Example 80, N-((2-(4-(1-(benzo[d][1,3]dioxol-5-yl)ethyl)piperazin-1-yl)thiazol-5-yl)methyl)-N-methylacetamide] | – |
| 0.05 to 0.2 µM | – | CC(c1ccc2nccnc2c1)N1CCN(c2ncccn2)CC1 (racemic) [Example 83, 6-(1-(4-(pyrimidin-2-yl)piperazin-1-yl)ethyl)quinoxaline] | – |
| < 0.05 µM | – | CC(=O)Nc1ncc(N2CCN(C(C)c3ccc4c(c3)OCO4)CC2)s1 (racemic) [Example 86, N-(5-(4-(1-(benzo[d][1,3]dioxol-5-yl)ethyl)piperazin-1-yl)thiazol-2-yl)acetamide] | – |
| 0.2 to 1 µM | – | CCOC(=O)c1cnc(N2CCN(C(C)c3ccc4nccnc4c3)CC2)s1 (racemic) [Example 90, Ethyl-2-(4-(1-(quinoxalin-6-yl)ethyl)piperazin-1-yl)thiazole-5-carboxylate] | – |
| – | – | CC(c1ccc2cccnc2c1)N1CCN(c2ncccn2)CC1 (racemic) [Example 91, 7-(1-(4-(pyrimidin-2-yl)piperazin-1-yl)ethyl)quinoline] | 0.05 to 0.2 µM |
| < 0.05 µM | – | CC(=O)Nc1cnc(N2CCN(C(C)c3ccc4nccnc4c3)CC2)nc1 (racemic) [Example 93, N-(2-(4-(1-(quinoxalin-6-yl)ethyl)piperazin-1-yl)pyrimidin-5-yl)acetamide] | – |
| 0.2 to 1 µM | – | CC(c1ccc2nccnc2c1)N1CCN(c2nccc(C(F)(F)F)n2)CC1 (racemic) [Example 94, 6-(1-(4-(4-(trifluoromethyl)pyrimidin-2-yl)piperazin-1-yl)ethyl)quinoxaline] | – |
| < 0.05 µM | – | CC(=O)Nc1cnc(N2CCN(C(C)c3ccc4c(c3)OCCO4)CC2)nc1 (racemic) [Example 96, N-(2-(4-(1-(2,3-Dihydrobenzo[b][1,4]dioxin-6-yl)ethyl)piperazin-1-yl)pyrimidin-5-yl)acetamide] | – |
| < 0.05 µM | – | CC(=O)Nc1nnc(N2CCN(C(C)c3ccc4c(c3)OCCO4)CC2)s1 (racemic) [Example 97, N-(5-(4-(1-(2,3-Dihydrobenzo[b][1,4]dioxin-6-yl)ethyl)piperazin-1-yl)-1,3,4-thiadiazol-2-yl)acetamide] | – |
| < 0.05 µM | – | CNC(=O)c1cnc(N2CCN(C(C)c3ccc4c(c3)OCO4)CC2)nc1 (racemic) [Example 98, 2-(4-(1-(Benzo[d][1,3]dioxol-5-yl)ethyl)piperazin-1-yl)-N-methylpyrimidine-5-carboxamide] | – |
| < 0.05 µM | – | CC(c1ccc2c(c1)OCO2)N1CCN(c2ncc(C(=O)N(C)C)cn2)CC1 (racemic) [Example 99, 2-(4-(1-(benzo[d][1,3]dioxol-5-yl)ethyl)piperazin-1-yl)-N,N-dimethylpyrimidine-5-carboxamide] | – |
| 0.2 to 1 µM | – | CC(=O)Nc1nnc(N2CCN(C(C)c3ccc4c(Cl)ccnc4c3)CC2)s1 (racemic) [Example 100, N-(5-(4-(1-(4-chloroquinolin-7-yl)ethyl)piperazin-1-yl)-1,3,4-thiadiazol-2-yl)acetamide] | – |
| 0.2 to 1 µM | – | CC(=O)Nc1cnc(N2CCN(C(C)c3ccc4c(Cl)ccnc4c3)CC2)nc1 (racemic) [Example 101, N-(2-(4-(1-(4-chloroquinolin-7-yl)ethyl)piperazin-1-yl)pyrimidin-5-yl)acetamide] | – |

| IC50 (read-out: OGA IC50) | OGA inhibitor activity (in words) | Compound | IC50 (OGA IC50 (M)) |
| --- | --- | --- | --- |
| 0.05 to 0.2 µM | – | Cc1cnc(N2CCN(C(C)c3ccc4nccnc4c3)CC2)nc1 (racemic) [Example 102, 6-(1-(4-(5-Methylpyrimidin-2-yl)piperazin-1-yl)ethyl)quinoxaline] | – |
| 0.05 to 0.2 µM | – | CCc1cnc(N2CCN(C(C)c3ccc4nccnc4c3)CC2)nc1 (racemic) [Example 103, 6-(1-(4-(5-ethylpyrimidin-2-yl)piperazin-1-yl)ethyl)quinoxaline] | – |
| < 0.05 µM | – | CCC(=O)Nc1nnc(N2CCN(C(C)c3ccc4c(c3)OCO4)CC2)s1 (racemic) [Example 105, N-(5-(4-(1-(benzo[d][1,3]dioxol-5-yl)ethyl)piperazin-1-yl)-1,3,4-thiadiazol-2-yl)propionamide] | – |
| < 0.05 µM | – | CCCC(=O)Nc1nnc(N2CCN(C(C)c3ccc4c(c3)OCO4)CC2)s1 (racemic) [Example 106, N-(5-(4-(1-(benzo[d][1,3]dioxol-5-yl)ethyl)piperazin-1-yl)-1,3,4-thiadiazol-2-yl)butyramide] | – |
| < 0.05 µM | – | CC(C)C(=O)Nc1nnc(N2CCN(C(C)c3ccc4c(c3)OCO4)CC2)s1 (racemic) [Example 107, N-(5-(4-(1-(benzo[d][1,3]dioxol-5-yl)ethyl)piperazin-1-yl)-1,3,4-thiadiazol-2-yl)isobutyramide] | – |
| < 0.05 µM | – | CC(c1ccc2c(c1)OCO2)N1CCN(c2nnc(NC(=O)C3CC3)s2)CC1 (racemic) [Example 108, N-(5-(4-(1-(benzo[d][1,3]dioxol-5-yl)ethyl)piperazin-1-yl)-1,3,4-thiadiazol-2-yl)cyclo propanecarboxamide] | – |
| < 0.05 µM | – | CNC(=O)c1cnc(N2CCN(C(C)c3ccc4c(c3)OCCO4)CC2)s1 (racemic) [Example 109, 2-(4-(1-(2,3-dihydrobenzo[b][1,4]dioxin-6-yl)ethyl)piperazin-1-yl)-N-methylthiazole-5-carboxamide] | – |
| 0.05 to 0.2 µM | – | CC(c1ccc2c(c1)OCO2)N1CCN(c2nnc(NC(=O)c3ccc(Cl)cc3)s2)CC1 (racemic) [Example 110, N-(5-(4-(1-(benzo[d][1,3]dioxol-5-yl)ethyl)piperazin-1-yl)-1,3,4-thiadiazol-2-yl)-4-chlorobenzamide] | – |
| 0.05 to 0.2 µM | – | CC(c1ccc2c(c1)OCO2)N1CCN(c2nnc(NCc3ccc(Cl)cc3)s2)CC1 (racemic) [Example 111, 5-(4-(1-(benzo[d][1,3]dioxol-5-yl)ethyl)piperazin-1-yl)-N-(4-chlorobenzyl)-1,3,4-thiadiazol-2-amine] | – |
| 0.05 to 0.2 µM | – | CCNc1nnc(N2CCN(C(C)c3ccc4c(c3)OCO4)CC2)s1 (racemic) [Example 112, 5-(4-(1-(benzo[d][1,3]dioxol-5-yl)ethyl)piperazin-1-yl)-N-ethyl-1,3,4-thiadiazol-2-amine] | – |
| 0.05 to 0.2 µM | – | CC(c1ccc2c(c1)OCO2)N1CCN(c2ncc3cc[nH]c3n2)CC1 (racemic) [Example 113, 2-(4-(1-(benzo[d][1,3]dioxol-5-yl)ethyl)piperazin-1-yl)-7H-pyrrolo[2,3-d]pyrimidine] | – |
| < 0.05 µM | very potent OGA inhibitors | CC(=O)Nc1nnc(N2CCN(C(C)c3ccc4scnc4c3)CC2)s1 (racemic) [Example 114, N-(5-(4-(1-(benzo[d]thiazol-5-yl)ethyl)piperazin-1-yl)-1,3,4-thiadiazol-2-yl)acetamide] | – |
| 0.05 to 0.2 µM | – | CC(=O)Nc1nnc(N2CCN(C(C)c3ccc4cccnc4c3)CC2)s1 (racemic) [Example 115, N-(5-(4-(1-(quinolin-7-yl)ethyl)piperazin-1-yl)-1,3,4-thiadiazol-2-yl)acetamide] | – |
| < 0.05 µM | very potent OGA inhibitors | CC(=O)Nc1cnc(N2CCN(C(C)c3ccc4scnc4c3)CC2)nc1 (racemic) [Example 116, N-(2-(4-(1-(benzo[d]thiazol-5-yl)ethyl)piperazin-1-yl)pyrimidin-5-yl)acetamide] | – |
| 0.2 to 1 µM | – | CC(=O)Nc1nnc(N2CCN(C(C)c3ccc4c(c3)OC(F)(F)O4)CC2)s1 (racemic) [Example 117] | – |
| 0.2 to 1 µM | – | CC(=O)Nc1cnc(N2CCN(C(C)c3ccc4c(c3)OC(F)(F)O4)CC2)nc1 (racemic) [Example 118] | – |
| 0.05 to 0.2 µM | – | CC(c1ccc2c(c1)OCO2)N1CCN(c2ncc3ccccc3n2)CC1 (racemic) [Example 119, 2-(4-(1-(benzo[d][1,3]dioxol-5-yl)ethyl)piperazin-1-yl)quinazoline] | – |
| – | – | CC(=O)Nc1cnc(N2CCN(C(C)c3ccc4cccnc4c3)CC2)nc1 (racemic) [Example 120, N-(2-(4-(1-(quinolin-7-yl)ethyl)piperazin-1-yl)pyrimidin-5-yl)acetamide] | 0.05 to 0.2 µM |
| 1 to 10 µM | – | CC(=O)Nc1cnc(N2CCN(C(C)c3ccc4nonc4c3)CC2)nc1 (racemic) [Example 121, N-(2-(4-(1-(benzo[c][1,2,5]oxadiazol-5-yl)ethyl)piperazin-1-yl)pyrimidin-5-yl)acetamide] | – |

| Compound | IC50 (read-out: OGA IC50) | OGA inhibitor activity (in words) | IC50 (OGA IC50 (M)) |
| --- | --- | --- | --- |
| CC(=O)Nc1cnc(N2CCN(C(C)c3ccc4c(c3)OCO4)CC2)nc1 (racemic) [Example 72, N-(2-(4-(1-(benzo[d][1,3]dioxol-5-yl)ethyl)piperazin-1-yl)pyrimidin-5-yl)acetamide] | – | very potent OGA inhibitors | < 0.05 µM |
